Assay [1] has as its target APC (Xenopus laevis, UniProt A0A1L8ESF3). Kind of assay: Cyclin B1-luciferase reporter degradation (luciferase assay) in mitotic Xenopus egg extract. Particulars: mitotic Xenopus extract. It counts as biochemical.
Method: The extract was incubated at room temperature and 3 μL samples were taken at 0, 20, 40 and 60 min.
Assay [2] relates to RPE1-H2B-GFP cells. As to the kind of experiment: Fluorescence live cell imaging with survival (Cox) analysis, RPE1. In kind it is cell-based, human. Particulars: proTAME 6 μM; for % rate of mitotic exit: relative to DMSO control, Cox model, apcin/apcin-M 25 μM; for Median mitotic duration: apcin or apcin-M 25 μM. Here is the method:
RPE1-H2B-GFP or U2OS-H2B-GFP cells were plated in 24-well glass-bottom plates 18-24 hours prior to siRNA transfection using RNAiMax (Invitrogen). After treatment with compound(s), DIC and GFP images were captured at 6-minute intervals for 45 hours. Movies were manually analyzed using Nikon Elements software or Image J.
RPE1-H2B-GFP or U2OS-H2B-GFP cells were plated in 24-well glass-bottom plates (Greiner BioOne, 662892) 18-24 hours prior to siRNA transfection using RNAiMax (Invitrogen). Plates were inserted into a covered chamber supplied with humidified 5% CO2 and mounted onto a motorized microscope stage (Prior Scientific). DIC and FITC images were captured at 6 minute intervals for 45 hours using a Nikon Ti inverted fluorescence microscope fitted with a 37° C. enclosed incubation chamber and using a 20× Plan Apo 0.75 NA objective lens. A Hamamatsu ORCA cooled CCD camera collected the images with 2×2 binning using Nikon Elements software (version 3.0). Movies were manually analyzed using Nikon Elements software or ImageJ. Mitotic duration was defined as the time from nuclear envelope breakdown until anaphase, in the case of normal mitosis, or until exit from prolonged mitosis as indicated by cytoplasmic blebbing accompanied by changes in chromatin as detected by H2B-GFP.
In order to detect differences in mitotic duration among cells in the live-cell imaging screen, a stratified Cox proportional hazards model (Cox, D. R. Regression models and life tables. J Royal Statistics Soc B34, 187-220, (1972)) was fit to censored mitotic duration times (where cells that are not observed exiting mitosis or dying in mitosis are censored at the last known time in mitosis). The Cox proportional hazards model is a semiparameteric approach to modeling time-to-event data, in which covariates are assumed to have constant proportional effects over time relative to a baseline hazard function that can take any form. In this case, stratification on “person” (the individual who analyzed the movie) and “date” (the date the assay was run) allow the baseline hazard function to differ across experimental blocks, but assume a fixed effect of treatment across experimental blocks. The model is thus: hi(t|Z=j)=hj(t)exp(β1×apcini+β2×apcinMi+β3×proTAMEi+β4×proTAMEi:apcinMi+β5×proTAMEi:apcini), j=1 . . . 4 where hi(t) is the hazard function of cell i at time t, hj(t) is the baseline hazard for strata j (with 4 levels, one for each person and date combination), apcini, proTAMEi, and apcinMi are indicator variables for presence or absence of the compounds apcin, proTAME, and apcin-M, respectively in cell i, proTAMEi:apcini is an indicator variable that is 1 if both proTAME and apcin are present in cell i, and 0 otherwise, and proTAMEi:apcinMi is a similar indicator variable for proTAME+apcin-M. In this model, […] represent the effects of apcin, apcin-M, and proTAME alone, while β4 and β5 represent the additional non-additive effect of the compounds beyond what is predicted from the combination of effects of the two compounds alone. This model was fit separately to cells treated with control siRNA or Mad2 siRNA. All statistical analysis was carried out in R 3.0.0 using the functions available as part of the survival package.
In this model, the β coefficients represent the log hazard ratios for exiting mitosis between treated and untreated cells. However, for ease of interpretation the β coefficients are exponentiated to convert them to normal hazard ratios, and then multiplied by 100 to convert to percentages relative to DMSO. These hazard ratios, which are referred to as mitotic exit rate, represent the relative probability that a treated cell in mitosis at time t will exit mitosis in the next time interval compared to an untreated cell.
For ease of interpretation, the treatment effects are presented relative to DMSO for all individual compounds and compound combinations. […]

The test system of assay [3] is HeLa H2B-GFP cells. Kind of assay: Emi1 knockdown and proTAME rescue. Particulars: 12 μM. In kind it is cell-based, human. Here is the method:
HeLa H2B-GFP cells were plated in glass-bottom 24-well plates at 20% confluence one day prior to the experiment. Cells were transfected with a pool of Emi1 siRNA (Dharmacon M-012434-01, 5′-[…]-3′ (SEQ ID NO: 4); 5′-[…]-3′ (SEQ ID NO: 5); 5′-[…]-3′ (SEQ ID NO: 6); 5′-[…]-3′ (SEQ ID NO: 7)) or Control#3 siRNA (described above) at 18.5 nM with DharmaFect3. After 24 h, cells were treated with 0.06% DMSO or 12 μM proTAME. Live cell imaging was set up as described above.

Assay [4] has as its target T1, APC (Homo sapiens, UniProt P30260).
T1 construct: endogenous in cells; host or cells: HeLa cells (synchronised; some with Mad2/BubR1 siRNA and cyclin B1-delta107 adenovirus)
As to the kind of experiment: Cdc20/Cdh1 binding assay in HeLa cells (APC immunoprecipitation). In kind it is cell-based. As for the experimental part:
HeLa cells in DMEM 10% FBS were plated in T25 flasks at 20% confluence one day prior to the experiment. They were then synchronized by a double thymidine block (18 h for the first block, 8 h release and another 18 h for the second block, thymidine concentration: 2 mM). For analysis of Cdh1 binding, cells were released into […] from the second thymidine block for 13 h and then washed into fresh medium. Six h later, cells were treated with 12 μM proTAME or proAAME or 0.06% DMSO for 2 h and then collected by trypin digestion. For analysis of Cdc20 binding, cells were transfected with indicated siRNAs during the first release from thymidine block after two washes with DPBS (CellGro 21-030-CV) and addition of 6.3 ml OptiMEM. A volume (79 μl) of 20 μl Control siRNA#3 or a 1:1 mix of 20 μl MAD2 siRNA and BubR1 siRNA (Dharmacon D-004101-01, 5′-[…]-3′ (SEQ ID NO: 11)) was mixed in 1381 μl OptiMEM in a tube, 23.7 μl OligoFectamine were mixed with 94.1 μl OptiMEM in a second tube. After 5 min incubation at RT, the tubes contents were mixed and siRNA-reagent complexes were allowed to form for 20 min at RT. The transfection mixes were added to cells in OptiMEM and FBS was added to 10% after 5 h transfection. Cyclin B1-Δ107 expressing adenovirus (1:100) was added at the start of the second thymidine block and kept in the medium for all subsequent steps. Cells were treated at 10 h after release with 100 nM okadaic acid, 25 μg/ml cycloheximide and 12 μM proTAME as indicated. After 2 h treatment, cells were collected by mitotic shake-off. Cell pellets were washed twice with DPBS and flash-frozen with liquid nitrogen and stored at −80° C. until use. Cell lysis and APC immunoprecipitation were performed as described above.

Molecules are shown by their SMILES.

T1 sequence (P30260 whole entry): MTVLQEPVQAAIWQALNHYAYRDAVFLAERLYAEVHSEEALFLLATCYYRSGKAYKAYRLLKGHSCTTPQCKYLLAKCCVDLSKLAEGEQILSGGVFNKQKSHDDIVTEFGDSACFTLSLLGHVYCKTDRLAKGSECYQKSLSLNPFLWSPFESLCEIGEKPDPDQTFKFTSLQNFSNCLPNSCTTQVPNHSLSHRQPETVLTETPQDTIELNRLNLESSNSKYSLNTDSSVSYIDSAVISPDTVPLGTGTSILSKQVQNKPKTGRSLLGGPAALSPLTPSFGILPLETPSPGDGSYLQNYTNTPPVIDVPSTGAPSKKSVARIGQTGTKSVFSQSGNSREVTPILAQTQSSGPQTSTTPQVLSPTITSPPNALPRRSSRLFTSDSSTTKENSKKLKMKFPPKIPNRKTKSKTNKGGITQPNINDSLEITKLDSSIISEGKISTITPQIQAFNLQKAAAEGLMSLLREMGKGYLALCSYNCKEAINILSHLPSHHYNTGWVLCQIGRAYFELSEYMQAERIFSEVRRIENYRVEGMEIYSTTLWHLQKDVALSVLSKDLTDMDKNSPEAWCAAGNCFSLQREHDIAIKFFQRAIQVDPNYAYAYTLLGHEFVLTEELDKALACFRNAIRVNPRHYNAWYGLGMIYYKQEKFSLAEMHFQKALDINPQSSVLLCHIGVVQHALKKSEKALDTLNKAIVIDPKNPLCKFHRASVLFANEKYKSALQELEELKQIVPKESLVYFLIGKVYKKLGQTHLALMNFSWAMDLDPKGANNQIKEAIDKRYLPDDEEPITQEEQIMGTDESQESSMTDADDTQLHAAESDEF
Sequence of APC (Xenopus laevis, UniProt A0A1L8ESF3) (A0A1L8ESF3 entry or part of it): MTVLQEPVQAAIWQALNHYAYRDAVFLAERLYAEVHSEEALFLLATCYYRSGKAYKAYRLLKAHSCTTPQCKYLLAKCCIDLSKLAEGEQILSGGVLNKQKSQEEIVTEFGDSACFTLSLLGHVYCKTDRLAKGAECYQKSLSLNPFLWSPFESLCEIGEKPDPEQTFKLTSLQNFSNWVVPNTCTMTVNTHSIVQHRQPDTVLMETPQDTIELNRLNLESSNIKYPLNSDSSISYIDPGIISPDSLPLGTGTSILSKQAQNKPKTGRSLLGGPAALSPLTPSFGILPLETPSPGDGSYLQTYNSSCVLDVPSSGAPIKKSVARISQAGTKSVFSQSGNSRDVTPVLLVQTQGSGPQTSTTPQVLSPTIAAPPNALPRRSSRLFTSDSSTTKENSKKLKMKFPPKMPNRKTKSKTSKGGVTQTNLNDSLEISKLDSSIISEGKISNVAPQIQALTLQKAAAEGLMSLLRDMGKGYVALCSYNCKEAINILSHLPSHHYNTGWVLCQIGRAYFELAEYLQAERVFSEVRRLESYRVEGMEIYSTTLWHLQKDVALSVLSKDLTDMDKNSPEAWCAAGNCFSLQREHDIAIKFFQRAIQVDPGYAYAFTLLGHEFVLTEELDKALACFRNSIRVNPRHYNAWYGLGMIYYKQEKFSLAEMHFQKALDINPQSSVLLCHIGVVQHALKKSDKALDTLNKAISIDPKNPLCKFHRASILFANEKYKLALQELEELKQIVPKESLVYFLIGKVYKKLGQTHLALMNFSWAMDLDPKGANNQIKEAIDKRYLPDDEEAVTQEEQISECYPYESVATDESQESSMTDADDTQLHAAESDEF
Sequence of APC (Xenopus laevis, UniProt A0A1L8ESF3) (Q6DFD4 entry or part of it, further chain): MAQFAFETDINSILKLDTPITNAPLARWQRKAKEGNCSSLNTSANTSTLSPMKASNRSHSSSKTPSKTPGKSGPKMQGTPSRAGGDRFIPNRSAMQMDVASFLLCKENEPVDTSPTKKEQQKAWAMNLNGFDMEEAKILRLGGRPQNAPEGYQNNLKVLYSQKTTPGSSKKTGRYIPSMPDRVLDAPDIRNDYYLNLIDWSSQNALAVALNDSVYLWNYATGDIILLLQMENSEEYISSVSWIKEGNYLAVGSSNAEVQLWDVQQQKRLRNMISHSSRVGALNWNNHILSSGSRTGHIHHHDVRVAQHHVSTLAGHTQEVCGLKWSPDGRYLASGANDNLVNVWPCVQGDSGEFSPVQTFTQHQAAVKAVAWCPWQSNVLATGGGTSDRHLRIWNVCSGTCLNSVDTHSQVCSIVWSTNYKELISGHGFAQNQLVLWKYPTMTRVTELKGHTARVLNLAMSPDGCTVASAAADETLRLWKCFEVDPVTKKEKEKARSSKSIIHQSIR

For the compound `COC(=O)[C@H](CCCN/C(=N\C(=O)OCOC(=O)Cc1ccccc1)NC(=O)OCOC(=O)Cc1ccccc1)NS(=O)(=O)c1ccc(C)cc1` [proTAME], the “Inhibition of cyclin B-luciferase proteolysis” value in assay [1] is given as “efficiently inhibits cyclin B-luciferase proteolysis”. In addition, the “% rate of mitotic exit” value in assay [2] (Mad2 siRNA) came to 0.22%; in assay [2] (control siRNA) it was 2.32%. Also, the “Median mitotic duration” value is 120 in assay [2] (Table 3, control siRNA) and 114 in assay [2] (Table 3, mad2 siRNA). Besides, the “Rescue of mitotic entry defect in Emi1-depleted cells” value in assay [3] is on record as “substantially rescued the mitotic entry defect caused by depletion of Emi1”. In addition, in assay [4] (HeLa arrested by nondegradable cyclin B, 12 μM), the “Dissociation of Cdc20 from the APC” value is reported as “induced significant dissociation of Cdc20 from the APC, but only if SAC proteins were depleted by RNAi”. Moreover, the “Cdh1 association with the APC” value in assay [4] (HeLa cells in G1, 12 μM) is reported as “inhibited Cdh1 association with the APC”. Besides, the “Reduction in Cdc20 binding to the APC” value in assay [4] (HeLa, 12 μM plus 10 μM MG132 for 2 hours) amounted to 30%.

Source of the values: patent publication US9572788B2, “Cell permeable inhibitors of anaphase promoting complex” (President and Fellows of Harvard College, priority 2014, dated 2017).
